How the values were obtained:
Assay type in all cases: in vitro ADME
[1] = Sulfonation of 1′-hydroxymyristicin, human liver S9; settings: S9 protein yield 143 mg/g liver
Protocol: (§1) The formation of 1′-sulfoxymyristicin was determined using incubations containing male rat liver Sprague–Dawley or pooled gender human liver S9 proteins, PAPS as a cofactor, and GSH, which acts as a scavenger of the reactive carbocation formed due to the unstable nature of the 1′-sulfoxy metabolite in an aqueous environment (van den Berg et al. [2012]; Martati et al. [2011]; Al-Subeihi et al. [2011]). Incubation mixtures containing (final concentrations) 10 mM of GSH, 0.2 mM of PAPS, and 3 mg/ml of S9 proteins in 0.1 M potassium phosphate (pH 8.2) were pre-incubated for 1 min at 37 °C. After the pre-incubation, 1′-hydroxymyristicin dissolved in DMSO was added in final concentrations ranging between 10 and 6000 μM while keeping the final content of DMSO at 1 % (v/v). The reaction was terminated after 360 min of incubation by adding 25 μl (0.25 times the incubation volume) of ice-cold ACN. The formation of the GSH conjugate of 1′-sulfoxymyristicin was linear with time and S9 protein concentrations under the experimental conditions used. Blank incubations were performed in the absence of PAPS. Incubations were performed in triplicate. All samples were centrifuged for 5 min at 16,000×g, and the supernatant was stored at −20 °C until ultra-performance liquid chromatography (UPLC) analysis.
(§2) Quantification of 1′-sulfoxymyristicin was done using UPLC analysis as described for the estimation of 1′-sulfoxysafrole (Martati et al. [2011]). […] The gradient for analysis of the metabolite consisted of a mixture of ACN and ultrapure water containing 0.1 % (v/v) TFA. The flow rate was 0.6 ml/min, starting at 0 % ACN and increasing the percentage of ACN to 20 % over 0.2 min, followed by an increase to 30 % ACN over 4.3 min, then increasing to 100 % over 0.3 min, and keeping it at 100 % for 0.2 min, and finally decreasing to 0 % over 0.2 min and keeping it at 0 % for 0.8 min. Separation and purification of the GSH adduct of 1′-sulfoxymyristicin was performed by collecting the peak of the metabolite from the UPLC column. […]

[2] = Sulfonation of 1′-hydroxymyristicin, male rat liver S9; settings: S9 protein yield 143 mg/g liver
Protocol: as §1, §2

[3] = Microsomal conversion of myristicin, human liver microsomes
Protocol: (§3) First, it was determined which organs are involved in the biotransformation of myristicin in rat and human. For this purpose, liver, kidney, lung, and small intestine microsomes from male Sprague–Dawley rat and pooled gender human were used. Incubations were performed by adding myristicin to incubation mixtures containing 1 mg/mL of the microsomal protein preparations and 3 mM NADPH in 0.2 M Tris–HCl (pH 7.4). After 1 min of pre-incubation at 37 °C, myristicin (final concentration, 1000 μM) was added from a 100 times concentrated stock solution in DMSO so that the final DMSO content was 1 % (v/v). Incubations were carried out for 30 min after which the reactions were terminated by adding 25 µl (0.25 times the incubation volume) of ice-cold ACN. Samples were centrifuged for 5 min at 13,000×g, and the supernatant was stored at −20 °C until UPLC analysis. As metabolism of myristicin was observed only in incubations with liver microsomes for male rats and pooled gender human, the determination of kinetic constants for the formation of microsomal metabolites was performed only for the liver fractions. Incubations to determine kinetic constants were performed following the conditions described above using final concentrations of myristicin from 25 to 1000 μM for rat and human liver. In all incubations, the final concentration of DMSO, in which myristicin was dissolved, was kept at 1 % (v/v). The formation of different microsomal metabolites was linear with time and microsomal protein concentration under the conditions described. Blank incubations were performed in the absence of the cofactor NADPH. All incubations were performed in triplicate.
(§4) Secondary metabolism of the relevant 1′-hydroxy metabolite of myristicin was taken into account by determining the kinetic constants for its conversion in (a) glucuronidation, (b) sulfation, and (c) oxidation, again under conditions that allowed adequate definition of kinetic constants and with <10 % substrate conversion. Incubation samples were subjected to UPLC analysis that was performed as described previously (Punt et al. [2008]). Identification was achieved by comparing the UV spectra of the formed metabolites to the spectra of the synthesized 1′-hydroxymyristicin and 1′-oxomyristicin reference standards. Quantification of all formed metabolites was done by comparing the peak areas to those of calibration curves of the corresponding reference compounds, determined using UPLC with photodiode array detection (UPLC-PDA). The UPLC system was composed of a Waters (Waters, Milford, MA) Acquity solvent manager, sample manager, and photodiode array detector, equipped with Water Acquity UPLC BEH C18 column.
(§5) The gradient for analysis of microsomal metabolites was performed with 100 % ACN and ultrapure water containing 0.1 % (v/v) TFA. The flow rate was 0.6 ml/min. The gradient started at 10 % ACN, increased to 50 % ACN over 4 min, increased to 80 % over 0.5 min, followed by decrease to 10 % ACN over 0.5 min, and finally kept at 10 % for 1 min.

[4] = Microsomal conversion of myristicin, male rat liver microsomes
Protocol: as §3, §4, §5

[5] = formation of the metabolite from myristicin, NADPH, mean of three ± SD
[6] = formation of the metabolite from myristicin, Vmax/Km × 1000
[7] = from myristicin, scaled Vmax/Km

C=CC(O)c1cc(OC)c2c(c1)OCO2 (stereo not shown) [1′-Hydroxymyristicin, 1′-hydroxymyristicin]
k Scaled [1]: 0.14 ml/hr/g tissue | k Scaled [2]: 0.15 ml/hr/g tissue | Vmax [3, 5]: 0.17 ± 0.03 nmol min^−1 (mg microsomal or S9 protein)^−1 | In vitro catalytic efficiency [3, 6]: 0.726 μl min^−1 (mg microsomal or S9 protein)^−1 | Scaled Vmax, in vivo ([3]; from myristicin, microsomal protein yield 32 mg/g liver): 0.326 μmol/h/g tissue | In vivo catalytic efficiency [3, 7]: 0.0014 ml/h/g tissue | Vmax [4, 5]: 0.86 ± 0.18 nmol min^−1 (mg microsomal or S9 protein)^−1 | In vitro catalytic efficiency [4, 6]: 8.431 μl min^−1 (mg microsomal or S9 protein)^−1 | Scaled Vmax, in vivo ([4]; from myristicin, microsomal protein yield 35 mg/g liver): 1.806 μmol/h/g tissue | In vivo catalytic efficiency [4, 7]: 0.0177 ml/h/g tissue | Km for formation from myristicin, fold lower in rat liver than in human liver incubations ([4]; rat vs human): twofold lower | Vmax for formation from myristicin, fold higher in rat liver than in human liver incubations ([4]; rat vs human): fivefold higher | catalytic efficiency for formation from myristicin, fold higher in male rat liver than in human liver ([4]; scaled catalytic efficiency, rat vs human): 13 fold

— publication PMC5306082, “Physiologically based kinetic modeling of the bioactivation of myristicin” (Archives of Toxicology, 2016)
